Test results reported in the supplement of paper PMC10307832.

Key:
Experiment in all cases: relative viability (nuclei count vs DMSO), 5 days (fraction); higher = more cells survive
SGI-1776 + Palbociclib = compound: CN1CCC(CNc2ccc3ncc(-c4cccc(OC(F)(F)F)c4)n3n2)CC1 [SGI-1776] + CC(=O)c1c(C)c2cnc(Nc3ccc(N4CCNCC4)cn3)nc2n(C2CCCC2)c1=O [Palbociclib] (partner 0.5 µM)
How it was run: (§1)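 One day after seeding in 1536-well plates, lung cancer cell lines were dosed by pin tool. Dosing was either single-drug or a fixed anchor-drug dose plus five library-drug doses (not always all listed) in √10 steps. After 5 days, nuclei were stained in one fix-and-stain step and counted on 4× images, and relative viability is the nuclei count of treated wells over that of vehicle wells, given as the median of duplicate plates.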

[1] = compound: C1COCCN1C2=NC(=NC3=C2OC4=C3C=CC=N4)C5=CC(=CC=C5)NC(=O)C6=CN=C(C=C6)N + C[C@@H](Oc1cc(-c2cnn(C3CCNCC3)c2)cnc1N)c1c(Cl)ccc(F)c1Cl [Crizotinib] (partner 1 µM)
How it was run: as §1

Entinostat + Vorinostat = compound: Nc1ccccc1NC(=O)c1ccc(CNC(=O)OCc2cccnc2)cc1 [Entinostat] + O=C(CCCCCCC(=O)Nc1ccccc1)NO [Vorinostat] (partner 1 µM)
How it was run: as §1

Row | Cell Line | relative viability (SGI-1776 + Palbociclib; first compound 0.08 µM) | relative viability (SGI-1776 + Palbociclib; first compound 0.8 µM) | relative viability (SGI-1776 + Palbociclib; first compound 2.53 µM) | relative viability (SGI-1776 + Palbociclib; first compound 8 µM) | relative viability ([1]; first compound 0.02 µM) | relative viability ([1]; first compound 0.06325 µM) | relative viability ([1]; first compound 0.2 µM) | relative viability ([1]; first compound 0.6325 µM) | relative viability ([1]; first compound 2 µM) | relative viability (Entinostat + Vorinostat; first compound 0.02 µM) | relative viability (Entinostat + Vorinostat; first compound 0.06325 µM) | relative viability (Entinostat + Vorinostat; first compound 0.2 µM) | relative viability (Entinostat + Vorinostat; first compound 0.6325 µM) | relative viability (Entinostat + Vorinostat; first compound 2 µM)
1 | NCI-H2087 | 0.299 | 0.231 | 0.293 | 0.204 | 0.979 | 0.936 | 0.925 | 0.892 | 0.531 | 1.07 | 0.407 | 0.697 | 0.451 | 0.157
2 | NCI-H2170 | 0.376 | 0.349 | 0.408 | 0.364 | 1.31 | 1.37 | 1.25 | 1.12 | 0.668 | 0.803 | 0.72 | 0.683 | 0.476 | 0.265
3 | HCC-78 | 0.481 | 0.428 | 0.446 | 0.458 | 0.352 | 0.327 | 0.329 | 0.282 | 0.261 | 0.44 | 0.435 | 0.441 | 0.33 | 0.281
4 | NCI-H2228 | 0.787 | 1.1 | 0.715 | 0.537 | 0.489 | 0.536 | 0.364 | 0.397 | 0.291 | 0.675 | 0.683 | 0.761 | 0.406 | 0.32
5 | H3255 | 0.363 | 0.34 | 0.328 | 0.311 | 0.729 | 0.805 | 0.758 | 0.844 | 0.586 | 0.902 | 0.303 | 0.65 | 0.483 | 0.37
6 | HCC-15 | 0.694 | 0.666 | 0.772 | 0.51 | 0.824 | 0.938 | 0.843 | 0.819 | 0.545 | 0.81 | 0.807 | 0.636 | 0.51 | 0.266
7 | NCI-H727 | 0.583 | 0.679 | 0.693 | 0.51 | 0.908 | 0.962 | 0.739 | 0.725 | 0.505 | 1.24 | 1.27 | 1.16 | 1.06 | 0.673
